“Also recorded” adds a separate entry of the source. Read-outs that look alike come from different tables or passages of the source.
Columns and labels:
[1] = molecular target: T1, ABCC4-PDZ motif and MPP1 interaction (Homo sapiens, UniProt O15439+Q00013); assay: biochemical; details: for IC50: 10 concentrations 3.5 nM to 70 μM
T1 sequence (Q00013 1-466): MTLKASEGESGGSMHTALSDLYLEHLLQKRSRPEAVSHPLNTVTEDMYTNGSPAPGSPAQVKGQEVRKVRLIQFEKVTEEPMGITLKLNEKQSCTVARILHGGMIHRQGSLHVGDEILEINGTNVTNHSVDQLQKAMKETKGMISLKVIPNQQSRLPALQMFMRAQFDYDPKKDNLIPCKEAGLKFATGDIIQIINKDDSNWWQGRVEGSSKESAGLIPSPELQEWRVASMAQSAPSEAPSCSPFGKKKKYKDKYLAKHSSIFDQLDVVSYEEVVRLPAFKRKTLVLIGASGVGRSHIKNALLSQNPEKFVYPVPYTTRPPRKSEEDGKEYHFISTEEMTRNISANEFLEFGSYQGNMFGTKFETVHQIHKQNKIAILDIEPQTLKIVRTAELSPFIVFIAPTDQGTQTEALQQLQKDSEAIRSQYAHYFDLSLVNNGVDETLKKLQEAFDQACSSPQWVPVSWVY
T1 sequence (O15439 1301-1325): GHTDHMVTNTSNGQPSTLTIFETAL

[2] = system: ABCC4 plasma membrane localization in HEK293 cells expressing MPP1 and GFP-ABCC4; assay: ABCC4 plasma membrane localization (confocal microscopy); format: cell-based, Human; details: in words; confocal microscopy
Method: Peptides containing or lacking the ABCC4-PDZ motif were fused with the cell penetrating HIV-TAT peptide. These peptides were tested for their effect on ABCC4 plasma membrane localization. HEK293 cells were transfected with MPP1 and GFP-ABCC4 and the ER protein, calreticulin. The plasma membrane was counter-stained with wheat-germ-agglutinin (WGA) labeled with Alexa647 after treatment with either ABCC4-PDZ or ABCC4ΔC peptide.
HEK293 cells were seeded on chambered coverglass slides (LAB-TEK) 48 h before transfection with plasmid DNA (250 ng) encoding pAc-GFP-ABCC4 or ABCC4ΔC and pCal plasmid encoding the ER resident protein calreticulin conjugated to RFP (Origene). Transfection was performed using Lipofectamine 2000 as per the manufacturer’s instructions. Immediately prior to visualizing cells, cells were counterstained with the plasma membrane marker wheat-germ agglutinin (WGA) conjugated to Alexa-647 (Invitrogen). All confocal microscopy images were acquired on a 3i Marianas system configured with an Yokagowa CSU-X spinning disk confocal microscope utilizing a ×63 Zeiss objective, using the 488 (GFP), 561 (RFP), and 660 (far red) laser lines.

[3] = system: MO7e cells; assay: Cytarabine cytotoxicity in MO7e cells; format: cell-based, Human; details: in words
Method: MO7e cells were seeded at 1500 cells per well of a 96-well plate. Cells were then treated with Cytarabine at increasing concentrations ranging from 0.5 to 500 μM for 4 h in serum-free media. Cells were washed three times with PBS and replaced with fresh complete media for 68 h. Cell viability analysis was determined using CellTiter Glo. Where applicable, cells were treated with 10 nM Antimycin A. IC50 values were calculated using GraphPad Prism.

[4] = Antimycin A cytotoxicity in MO7e and ABCC4 KO MO7e cells; format: cell-based, Human; details: human, 0.01 to 1000 μM, CellTiter Glo, triplicate
Method: (§1) The Meg01, MO7e, and ABCC4 KO MO7e cell lines were plated at 1500 cells per well in a 96-well plate. Cells were treated with 10 concentrations of Antimycin A (Santa Cruz) ranging from 0.01 to 1000 μM. Cell viability was determined using CellTiter Glo (Promega). […] Cell viability analysis was determined using CellTiter Glo. IC50 values were calculated using GraphPad Prism.

[5] = system: MO7e cells; assay: as above; format: cell-based, Human; details: MO7e; 6MP 10 μM (sublethal), in words
Method: as §1

[6] = system: mitochondrial function of MO7e and ABCC4 KO MO7e cells; assay: Mitochondrial function (relative ATP, TMRE, MitoTracker Green); format: cell-based, Human; details: 10 nM
Method: WT and ABCC4 KO MO7e cells were treated with DMSO or 10 nM Antimycin A before incubation with TMRE or MitoTracker Green (Life Technologies) for 15 min. After incubation, cells were analyzed with BD Biosciences flow cytometer and mean fluorescence intensity was calculated. Relative ATP amounts were determined by the CellTiter Glo Assay.

[7] = system: primary AML cells from adult patients; assay: Annexin V/PI apoptosis in primary AML patient samples; format: cell-based, Human; details: 50 or 100 µM cytarabine + 10 nM Antimycin A 4 h, then 44 h ± Antimycin A; triplicates; in words
Method: Primary AML cells from adult patients were treated with either vehicle, 50 or 100 µM cytarabine, 10 nM Antimycin A, or the combination of 50 or 100 µM cytarabine + 10 nM Antimycin A for 4 h. Post treatment, the cells were washed with fresh media (2×) and resuspended in the absence or presence of 10 nM Antimycin A and cultured for an additional 44 h (for a total treatment time of 48 h). The cells were then stained with Annexin V-fluorescein isothiocyanate (FITC)/propidium iodide (PI) apoptosis Kit (Beckman Coulter; Brea, CA, USA). The stage of apoptotic cells (Annexin V-positive, but early or late apoptosis) is identified by the proportion of AnnexinV+/PI− (early apoptosis) and Annexin V+/PI+ (late apoptosis) cells. This experiment was performed once in triplicates (presented as average ± SEM) due to the limited sample availability. Patient samples were selected based on the availability of an adequate number of cells to perform the assay.

[8] = system: mitochondrial complex III; parameters: method as in PMID 6257713; details: in words; cited from earlier work
Method: Among the 11,297 chemicals tested, 219 of them (144 unique molecules) had >30% inhibition and were selected for further dose-response analysis using 10 concentrations ranging from 3.5 nM to 70 μM.

[9] = system: murine hematopoietic progenitor cells (HPC); assay: Hematopoietic progenitor cell serial replating in methylcellulose
Method: In these experiments, littermates were used as controls. Bone marrow from 8- to 12-week-old female virgin C57/BL6 mice were harvested. Progenitors were enriched by incubating with lineage-PE antibodies (CD4, CD8, Mac1, Gr1, NK1.1, B220, and Ter119) and separated using AutoMACS Pro (Miltenyi). Hematopoetic progenitor cells were cultured in the presence of recombinant murine SCF (rmSCF), IL3 (rmIL3), and IL6 (rmIL6) (Peprotech; all 50 ng/ml) for 48 h before transduction on RetroNectin (Takara) coated plates. Retroviral supernatant containing media was produced by transient transfection of HEK293T cells with MSCV based retroviral plasmids encoding either MYCN-ires-YFP or MPP1-ires-CFP as previously described[35]. Forty-eight hours post transduction, cells were harvested, sorted for either YFP or CFP expression, and plated on methylcellulose containing IL3, IL6, SCF, and EPO (Stem Cell Technologies). Colonies were counted after 7 days growth at 37 °C, harvested, and replated.

CCCCCC[C@H]1C(=O)O[C@H](C)[C@H](NC(=O)c2cccc(NC=O)c2O)C(=O)O[C@@H](C)[C@@H]1OC(=O)CC(C)C [Antimycin A]
IC50 ([1]; 500 nM B-ABCC4, 5 nM His-S-MPP1, 0.7% DMSO, read-out: IC50 for complex disruption (TR-FRET)): ~3 nM
IC50 ([1]; figure value, 500 nM B-ABCC4, 5 nM His-S-MPP1, triplicate, read-out: IC50 for disruption of MPP1 and ABCC4 interaction (TR-FRET)): 3.9 nM
TR-FRET dose response / disruption of interaction ([1]; in words): the most potent
effect on ABCC4 plasma membrane localization [2]: ABCC4 relocalized from the plasma membrane to the cytosol; also recorded: causes ABCC4 to relocalize from the plasma membrane
effect of Antimycin A on cytarabine sensitivity ([3]; MO7e vs. MO7e-ABCC4 knockout, Antimycin A 10 nM): specifically sensitized MO7e cells to Cytarabine, but not MO7e-ABCC4 knockout cells; also recorded: specifically sensitizes ABCC4 expressing MO7e cells, but not ABCC4 KO cells
effect of co-treatment on IC50 for cytarabine ([3]; peer review file): reduce the IC50 for cytarabine
IC50 ([4]; MO7e ABCC4 KO cells, MO7e ABCC4 KO): 1700 nM
IC50 ([4]; MO7e cells, MO7e): 2200 nM
Antimycin A cytotoxicity in combination with non-cytotoxic 6MP [5]: sensitizes MO7e cells to Antimycin A; also recorded: shifted the Antimycin A survival curve to the left indicating greater toxicity when an ABCC4 substrate was present
relative ATP ([6]; CellTiter Glo, triplicate): Equal relative
effect on mitochondrial function ([6]; in words): does not selectively affect the mitochondrial; also recorded: minimal effect on mitochondria; also recorded: not exclusively disruptive to mitochondrial function in cells lacking or containing ABCC4
Antimycin A enhancement of cytarabine-induced apoptosis in primary AML samples [7]: Three of the 5 patients; also recorded: enhanced cytarabine cytoxicity in three primary AML patient samples; also recorded: did not show enhancement on cytarabine-induced apoptosis; also recorded: increased Annexin V^+ percentage of cells with combination treatment of Antimycin A and cytarabine vs cytarabine alone
mitochondrial complex III inhibition [8]: mitochondrial complex III inhibitor at micromolar concentration
effect on MPP1-driven methylcellulose replating ([9]; HPC transduced with MPP1, Antimycin A 10 nM, triplicate): blocked replating of MPP1 overexpressing HSC; also recorded: attenuated
effect on colony formation of normal hematopoietic progenitors ([9]; normal hematopoietic progenitors, Antimycin A 10 nM (peer review file)): did not effect; also recorded: does not reduce the

— paper PMC5691054, “An unexpected protein interaction promotes drug resistance in leukemia” (Nature Communications, 2017)
